From EP1529535A1, “Isolation of a circulating human lipolytic peptide” (IPF PharmaCeuticals GmbH, priority 2003, dated 2005)

System: 3T3L1-derived differentiated mouse adipocytes
Type: cell-based
Description: According to the invention 3T3L1-derived differentiated mouse adipocytes can be used as appropriate cell-system. These cells are treated with fractions of human hemofiltrate and identified using a glycerol-estimation method (GPO-Trinder reagent, Sigma, Deisenhofen, Germany) lipolytic activity. […] It was subsequently isolated in several chromatographic steps using reverse-phase and cation-exchange chromatographic material. 3T3L1 cells were obtained from ATCC. They were grown in DMEM with 10% FCS, penicillin, streptomycin, and L-glutamine for proliferation. For differentiation into the mature adipocyte phenotype, the cells were plated onto 96 well plates (Costar) and treated for three days with differentiation medium (DMEM with 10% FCS, dexamethasone, insulin, L-glutamine and 8-Br-cAMP) and subsequently for three to six days with sustainment medium (DMEM with 10% FCS and L-glutamine). Cells differentiated as described above were then treated for five hours with the hemofiltrate fractions diluted in serum-free medium. An aliquot of the cell supernatant was mixed with the glycerol-estimation-solution (GPO-Trinder Reagent, Sigma, Garching, Germany) and incubated for 15 minutes. Then the absorbance was measured at 540 nm in a 96 well plate ELISA reader (Dynex). […] The colored product is measured at 540 nm in a spectrophotometer. […]

| SMILES | EC50 |
| --- | --- |
| CSCC[C@H](NC(=O)[C@H](CCCNC(=N)N)NC(=O)[C@H](Cc1ccc(O)cc1)NC(=O)[C@@H]1CCCN1C(=O)CNC(=O)[C@H](CCC(=O)O)NC(=O)[C@H](CC(=O)O)NC(=O)[C@H](CCCCN)NC(=O)[C@H](CCCCN)NC(=O)[C@H](CCC(=O)O)NC(=O)[C@H](C)N)C(=O)N[C@@H](CCC(=O)O)C(=O)N[C@@H](Cc1c[nH]cn1)C(=O)N[C@@H](Cc1ccccc1)C(=O)N[C@@H](CCCNC(=N)N)C(=O)N[C@@H](Cc1c[nH]c2ccccc12)C(=O)NCC(=O)N[C@@H](CO)C(=O)N1CCC[C@H]1C(=O)N1CCC[C@H]1C(=O)N[C@@H](CCCCN)C(=O)N[C@@H](CC(=O)O)C(=O)O [β-MSH, aekkdegp yrmehfrwgs ppkd] | ~20 nM |
| CSCC[C@H](NC(=O)[C@H](CCCNC(=N)N)NC(=O)[C@H](Cc1ccc(O)cc1)NC(=O)[C@@H]1CCCN1C(=O)CNC(=O)[C@H](CCC(=O)O)NC(=O)[C@H](CC(=O)O)NC(=O)[C@H](CCCCN)NC(=O)[C@H](CCCCN)NC(=O)[C@H](CCC(=O)O)NC(=O)[C@H](C)NC(=O)[C@H](C)NC(=O)[C@@H](N)C(C)C)C(=O)N[C@@H](CCC(=O)O)C(=O)N[C@@H](Cc1c[nH]cn1)C(=O)N[C@@H](Cc1ccccc1)C(=O)N[C@@H](CCCNC(=N)N)C(=O)N[C@@H](Cc1c[nH]c2ccccc12)C(=O)NCC(=O)N[C@@H](CO)C(=O)N1CCC[C@H]1C(=O)N1CCC[C@H]1C(=O)N[C@@H](CCCCN)C(=O)N[C@@H](CC(=O)O)C(=O)O [vaaekkdegp yrmehfrwgs ppkd] | ~20 nM |
